The subject of data set [1] is T. cruzi intracellular amastigotes (GNF7686-resistant, DR). Kind of data set: T. cruzi intracellular amastigote efficacy assay in NIH/3T3 cells, GNF7686-resistant strain. Format: cell-based. The conditions noted are these: Trypanosoma cruzi, NIH3T3, intracellular amastigotes in NIH/3T3, 48-hour treatment. Here is the method: To determine compound efficacy on T. cruzi intracellular amastigotes, NIH/3T3 cells were seeded (1,000 cells / well, 40 μL) into microscopy-grade, clear bottom, 384-well plates (Greiner) in RPMI-1640 medium containing 5% heat-inactivated fetal bovine serum and 100 IU penicillin / 100 μg streptomycin per mL. Plates were incubated overnight at 37°C / 5% CO2. Cells were infected with T. cruzi trypomastigotes at a multiplicity of infection (MOI) of 10 for the wild-type strain, and 20 for the GNF7686-resistant mutant strain. After six hours of infection (at 37°C / 5% CO2), the plates were washed by aspirating the medium and replacing with fresh screening medium to remove remaining extracellular trypomastigotes. The plates with infected cells were incubated overnight (37°C / 5% CO2) and compounds dissolved in DMSO were added to plate wells on the following day (0.2% DMSO final concentration). […] The plates were then scanned using the Evotec Opera High Content Screening System (Perkin Elmer) and amastigote proliferation was assessed by counting parasites within the 3T3 cells using CellProfiler version 2.1.0 cell image analysis software. […]

For data set [2], the system named is T. cruzi epimastigote respiration (wild-type). Kind of data set: T. cruzi epimastigote respiration (oxygen consumption, MitoXpress-Xtra), wild-type. It counts as cell-based. The conditions noted are these: Trypanosoma cruzi; intact epimastigotes. The method, then: (§1) GNF7686 and cytochrome b inhibitors (0.2% DMS0 final concentration) were added to 384-well assay plates containing 20 μL of assay buffer (250 mM sucrose, 15 mM KCl, 5 mM MgCl2, 1 mM EGTA, 30 mM K2HPO4, pH 7.4) and allowed to dissolve for two hours. Meanwhile, T. cruzi epimastigotes were harvested (800 × g for 5 min at 4°C), washed twice with buffer A (10 mM Tris-HCl, pH = 7.4, 0.23 M mannitol, 0.07 M sucrose, 0.2 mM EDTA, 0.2% bovine serum albumin, 0.5 mM phenylmethanesulfonyl fluoride), and finally resuspended in buffer A at a final concentration of 150 × 10^6 epimastigotes / mL. Next, 20 μL of T. cruzi epimastigote suspension (3 x 10^6 parasites) was added to each sample well, and then 15 μL of MitoXpress-Xtra probe (Cayman Chemicals) was added (final assay volume of 60 μL). Probe phosphorescence is quenched in the presence of oxygen and is inversely proportional to the amount of oxygen present in the solution. […] The assay plate was transferred to a Gemini XPS fluorescence plate reader (Molecular Devices) and read at 3 minute intervals at excitation and emission wavelengths of 380 nm and 650 nm, respectively, for 30 minutes at 37°C. The slope for the linear portion of time course of fluorescence increase (rate of oxygen consumption) was calculated after subtraction of blank well values. […]

In data set [3] the test system is T. cruzi epimastigote respiration (GNF7686-resistant, DR). Kind of data set: T. cruzi epimastigote respiration (oxygen consumption, MitoXpress-Xtra), GNF7686-resistant. Format: cell-based, Trypanosoma cruzi. The conditions noted are these: for IC50: Trypanosoma cruzi, intact epimastigotes. Here is the method: GNF7686 and cytochrome b inhibitors (0.2% DMS0 final concentration) were added to 384-well assay plates containing 20 μL of assay buffer (250 mM sucrose, 15 mM KCl, 5 mM MgCl2, 1 mM EGTA, 30 mM K2HPO4, pH 7.4) and allowed to dissolve for two hours. Meanwhile, T. cruzi epimastigotes were harvested (800 × g for 5 min at 4°C), washed twice with buffer A (10 mM Tris-HCl, pH = 7.4, 0.23 M mannitol, 0.07 M sucrose, 0.2 mM EDTA, 0.2% bovine serum albumin, 0.5 mM phenylmethanesulfonyl fluoride), and finally resuspended in buffer A at a final concentration of 150 × 10^6 epimastigotes / mL. Next, 20 μL of T. cruzi epimastigote suspension (3 x 10^6 parasites) was added to each sample well, and then 15 μL of MitoXpress-Xtra probe (Cayman Chemicals) was added (final assay volume of 60 μL). Probe phosphorescence is quenched in the presence of oxygen and is inversely proportional to the amount of oxygen present in the solution. HS mineral oil (20 μL, Cayman Chemicals) was added to wells to prevent oxygen exchange between the assay buffer and air. Blank wells containing assay buffer without parasites, corresponding compound, and mineral oil were prepared in parallel and values were subtracted from sample values to specifically measure changes in oxygen concentration caused by parasite respiration. All sample and blank wells were prepared in duplicate. The assay plate was transferred to a Gemini XPS fluorescence plate reader (Molecular Devices) and read at 3 minute intervals at excitation and emission wavelengths of 380 nm and 650 nm, respectively, for 30 minutes at 37°C. The slope for the linear portion of time course of fluorescence increase (rate of oxygen consumption) was calculated after subtraction of blank well values. Obtained slope values were normalized to the slope obtained for 0.2% DMSO, and plotted against the corresponding compound concentration for half maximal inhibitory concentration (IC50) value determination.

Data set [4] concerns the target T. cruzi cytochrome bc1 (complex III), wild-type (Trypanosoma cruzi, UniProt Q9TED7). In words: T. cruzi complex III activity (decylubiquinol / cytochrome c reaction), wild-type. It counts as biochemical. The conditions noted are these: digitonin-permeabilized epimastigotes. Here is the method:
(§2) T. cruzi epimastigotes ([…], density of 5 × 10^7 parasites / mL) were harvested by centrifugation (800 × g for 5 minutes at 4°C) and resuspended at 10 mg / mL of protein in buffer A containing 0.1 mg digitonin / mg protein. The parasites were then incubated with the detergent for 10 minutes at 26°C. The pellet fraction was collected by centrifugation (13,000 × g for 5 min at 4°C) and immediately used in the complex III assay.
(§3) Complex III activity was monitored using a coupled decylubiquinol / cytochrome c reaction. Decylubiquinone was first reduced to decylubiquinol as described. […] The reduction of cytochrome c was monitored at 550 nm using the SpectraMax Plus384 absorbance microplate reader. Blank samples containing all components excluding decylubiquinol were processed in parallel and absorbance values were subtracted from sample absorbance values to specifically measure […] reduction of cytochrome c. All sample and blank wells were prepared in triplicate. For IC50 determination, the slope of the linear portion of the corrected respiration trace was determined, and normalized to the slope obtained for 0.2% DMSO condition.

In data set [5] the test system is T. cruzi mutant complex III (cytochrome b L197F). Kind of data set: T. cruzi complex III activity (decylubiquinol / cytochrome c reaction), GNF7686-resistant. It counts as biochemical, Trypanosoma cruzi. The conditions noted are these: digitonin-permeabilized epimastigotes. The method, then:
as §2, §3

Data set [6] relates to rat skeletal muscle mitochondria respiration. Kind of data set: Respiration of isolated rat skeletal muscle mitochondria (oxygen consumption). It counts as biochemical. The conditions noted are these: mitochondria from rat skeletal muscle. Here is the method:
as §1, with “mL.” for “mL. Next, 20 μL of T. cruzi epimastigote suspension (3 x 10^6 parasites) was added to each sample well, and then 15 μL of MitoXpress-Xtra probe (Cayman Chemicals) was added (final assay volume of 60 μL). Probe phosphorescence is quenched in the presence of oxygen and is inversely proportional to the amount of oxygen present in the solution.”
Sprague Dawley rats were euthanized and skeletal muscle (from hind legs) was removed and stored in CP1 buffer (0.1 M KCl, 0.05 M Tris, 2 mM EGTA, pH 7.4 at 4°C) on ice. […] Respiration in isolated rat mitochondria was measured using the same protocol as described for T. cruzi epimastigotes using 150 μg protein / sample.

A short description of data set [7]: in vivo. The conditions noted are these: mouse.

These results are taken from publication PMC4506092, “Utilizing Chemical Genomics to Identify Cytochrome b as a Novel Drug Target for Chagas Disease” (PLoS Pathogens, 2015).

The EC50 is the midpoint of the concentration-response curve. High values mean a need for much substance, low ones an effect from little substance. For orientation: clearance means the rate of elimination divided by the concentration. For orientation: bioavailability means dose-corrected exposure relative to a reference, in per cent. A high value points to much systemic uptake.

Molecules are shown by their SMILES. Bounds are passed on as bounds.

Chain of T. cruzi cytochrome bc1 (complex III), wild-type (Q4DU59 entry or part of it): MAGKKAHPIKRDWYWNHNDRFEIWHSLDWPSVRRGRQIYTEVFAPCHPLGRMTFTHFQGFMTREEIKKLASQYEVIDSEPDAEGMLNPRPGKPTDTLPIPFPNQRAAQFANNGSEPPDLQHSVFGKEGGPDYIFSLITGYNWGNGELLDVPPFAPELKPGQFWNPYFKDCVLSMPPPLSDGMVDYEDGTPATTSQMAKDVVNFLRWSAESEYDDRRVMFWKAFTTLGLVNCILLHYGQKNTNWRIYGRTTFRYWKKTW
Chain of T. cruzi cytochrome bc1 (complex III), wild-type (Q9TED7 entry or part of it): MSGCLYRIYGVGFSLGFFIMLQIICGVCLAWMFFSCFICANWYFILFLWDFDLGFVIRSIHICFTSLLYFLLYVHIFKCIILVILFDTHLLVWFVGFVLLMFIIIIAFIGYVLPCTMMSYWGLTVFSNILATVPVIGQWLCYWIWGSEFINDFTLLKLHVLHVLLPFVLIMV

`O=C(Cn1ccnc1[N+](=O)[O-])NCc1ccccc1` [Benznidazole]: the EC50 in data set [1] came to 0.82 ± 0.13 µM.

On to `CCc1c(C)c(C#N)c2nc3ccccc3n2c1O` [GNF7686], for which a half-maximal effect in data set [1] (EC50) was put at 0.66 ± 0.12 µM. Further, the IC50 in data set [2] stood at 0.21 µM; in data set [3], 5.2 µM; in data set [4], 0.4 µM. In data set [5], the “Loss of potency on complex III, mutant vs wild-type” value was found to be 20 fold. For the same molecule, in data set [6], the “Mammalian (rat) mitochondrial respiration: no effect on oxygen consumption up to” value was above 25 µM. The molecule further returned a clearance in data set [7] of 53 mL/min/kg. Further, in data set [7] (po), the bioavailability came to 6%.

As for `CCCCCC[C@H]1C(=O)O[C@H](C)[C@H](NC(=O)c2cccc(NC=O)c2O)C(=O)O[C@@H](C)[C@@H]1OC(=O)CC(C)C` [Antimycin A], the figures for the IC50 in data set [2], in data set [3] and in data set [6] (read-out: Rat mitochondrial respiration IC50) were 0.04 µM, 0.27 µM and 0.81 µM, respectively. For the same molecule, in data set [3], the “Loss of potency on respiration, GNF7686-resistant vs wild-type” value is on record as ~ 7 fold. Further, the “Loss of potency on complex III, mutant vs wild-type” value in data set [5] was ~ 100 fold.
